The text below walks through data of patent US20260306526A1, “COMBINATION THERAPY FOR BACTERIAL INFECTIONS COMPRISING ZINC-CHELATOR, BETA-LACTAM ANTIBIOTIC AND SERINE BETA-LACTAMASE INHIBITOR” (priority 2023, published 2026).

Assay [1] has as its system MBLs. The following applies: cited from earlier work.
Assay [2] has as its system K. pneumoniae K66-45 (NDM-1). The experiment in a line: MIC determination of meropenem with zinc chelator at varying zinc concentrations in the medium (Example 31). The class given is cell-based, Klebsiella pneumoniae. The procedure: An experiment was conducted to determine the Minimal Inhibitory Concentration (MIC) of meropenem (MEM) in combination with the zinc chelator according to Example 26 of WO 2018/033719 at varying concentrations of zinc in the medium. The medium was a Mueller Hinton broth from Thermo Fischer. The zinc content was measured as 5.6 μM using ICP-MS. The concentration of zinc in the plasma of healthy animals has been determined to be close to this value. In infectious tissue, the zinc concentration is below the limit of detection (see, for example Bilinskaya et al., Am. Soc. For Microbiology (2020), 58, pages 1-8). Zinc sulfate was then added to this broth to obtain three further concentrations: 15.6 μM, 25.6 μM and 35.6 μM of zinc, keeping all other parameters constant.
As a model bacterial strain for this experiment, the MIC of MEM vs. K. pneumoniae K66-45 (NDM-1) was then determined in broth containing the four concentrations of zinc following the protocol given in Example 1. The EUCAST MIC value for MEM alone (EUCAST: standardization organization for MIC values of antibiotics) is 4-8 μM, meaning that if a bacterial strain is inhibited at lower concentrations than the MIC value, the bacterial strain is sensitive(S) to MEM. Correspondingly, if the bacterial strain is not inhibited at MIC or lower, the strain is resistant (R). If the inhibition is within the MIC range 4-8 μM, the resistance is intermediate (I).

Assay [3] concerns clinically isolated gram-negative bacteria with MBL as a resistance mechanism. The conditions noted are these: cited from earlier work.
The test system of assay [4] is NDM. The following applies: mouse models; relatively high doses required to reverse carbapenem resistance; cited from earlier work.
The test system of assay [5] is MBL-producers. The following applies: cited from earlier work.
Assay [6] concerns MBL class IMP. The following applies: cited from earlier work.

On to `NC(=O)[C@@H]1CC[C@@H]2CN1C(=O)N2OS(=O)(=O)O` [Avibactam, avibactam], for which the “inhibitory activity against MBLs” value in assay [1] is given as “none of these β-lactamase inhibitors possess inhibitory activity against MBLs”. On to `CC1=C[C@@H]2CN(C(=O)N2OS(=O)(=O)O)[C@@H]1C(N)=O` [ETX2514], for which, in assay [1], the “inhibitory activity against MBLs” value is reported as “none of these β-lactamase inhibitors possess inhibitory activity against MBLs”. In the case of `C[C@@H](O)[C@H]1C(=O)N2C(C(=O)O)=C(S[C@@H]3CN[C@H](C(=O)N(C)C)C3)[C@H](C)[C@H]12` [Meropenem, meropenem, reference compound], the “EUCAST MIC class for MEM alone” value in assay [2] (zinc concentration 5.6 μM) is given as “S (if a bacterial strain is inhibited at lower concentrations than the MIC value, the bacterial strain is sensitive(S) to MEM)”; in assay [2] (zinc concentration 35.6 μM), “R (if the bacterial strain is not inhibited at MIC or lower, the strain is resistant (R))”. The “sensitivity to meropenem alone” value in assay [3] (meropenem used alone, many clinical isolates with MBL) is recorded as “resistant to the antibiotic”. Moreover, the “effect of MEM in combination with the compound of Example 26 of WO 2018/033719” value in assay [3] (same strains, sensitivity reinstated) was “inhibitory effect”.

Take `N[C@H](CN[C@H](CN[C@@H](CC(=O)O)C(=O)O)C(=O)O)C(=O)O` [aspergillomarasmine A]: in assay [4], the in vivo activity result is “in vivo activity in mouse models”. Regarding `NCCN[C@H]1CC[C@H](CC(=O)N[C@H]2Cc3cccc(C(=O)O)c3OB2O)CC1` [taniborbactam], the “activity in combination with cefepime” value in assay [5] was “potent activity”. In addition, the “effect in combination with cefepime” value in assay [6] is recorded as “no effect”. Turning to `O=C(O)C[C@@H]1CC[C@H](NC(=O)Cc2cccs2)B(O)O1` [vaborbactam], in assay [1], the “inhibitory activity against MBLs” value is “none of these β-lactamase inhibitors possess inhibitory activity against MBLs”.
